{"source": "patent US9206100B2", "about": "“Route to synthetic analogues of Rocaglamide and Aglafoline using cascade transformations initiated by oxy-cope rearrangement of bis-alkynes” (The Florida State University Research Foundation, Inc., priority 2010, dated 2015)", "origin": "cited, not measured here", "system": "various human leukemia cell lines", "details": "through the intrinsic death pathway; human leukemia cell lines and ALL, CML and AML cells freshly isolated from patients", "data": [{"compound": "COc1ccc([C@@]23Oc4cc(OC)cc(OC)c4[C@]2(O)[C@H](O)[C@H](C(=O)N(C)C)[C@H]3c2ccccc2)cc1", "note": "[Rocaglamide]", "values": [{"measurement": "apoptosis induction", "result": "induces apoptosis"}]}]}
